Results on four molecules are retold here after paper PMC11822212, “High-throughput screening identifies Aurora kinase B as a critical therapeutic target for Merkel cell carcinoma” (Nature Communications, 2025).

Structures are written as SMILES. Where a name gives a salt, the structure may show the parent alone. Read-outs that look alike come from different tables or passages of the source.

One assay deals with MKL-2 cells (VP-MCC). The assay can be described thus: qHTS cell viability (CellTiter-Glo, 72 h; primary and follow-up small molecule screen). The assay is classed as cell-based, human.
Assay [1] relates to MCC cell lines (WAGA, MKL-1, MKL-2, MCC13, MCC26, UISO). The assay can be described thus: qHTS cell viability, all six MCC cell lines as a group (mean AUC, MCC.avg). The format is cell-based, human.
In another assay the test system is WAGA cells (VP-MCC). The assay can be described thus: qHTS cell viability (CellTiter-Glo, 72 h; primary and follow-up small molecule screen). The assay is classed as cell-based, human.
A further assay relates to MCC13 cells (VN-MCC). The description is as above. The format is cell-based, human.
The test system of another assay is MCC26 cells (VN-MCC). Described as above. The assay is classed as cell-based, human.
For assay [2], the system named is control cell lines (HACAT, HEK293T, CRL-7250, NIH-3T3). Nature of the assay: qHTS cell viability, control cell lines as a group (mean AUC, Control.avg). The assay is classed as cell-based.
For assay [3], the system named is VN-MCC cell lines (MCC13, MCC26, UISO). The assay can be described thus: qHTS cell viability, VN-MCC cell lines as a group (mean AUC, VN.MCC.avg). The format is cell-based, human.
A further assay concerns HEK293T cells. Nature of the assay: qHTS cell viability (CellTiter-Glo, 72 h; primary screen), control cell line. The assay is classed as cell-based, human.
A further assay has as its system CRL-7250 cells. The description is as above. The format is cell-based.
The subject of the next assay is MKL-1 cells (VP-MCC). The assay can be described thus: qHTS cell viability (CellTiter-Glo, 72 h; primary and follow-up small molecule screen). The format is cell-based, human.
The subject of assay [4] is VP-MCC cell lines (WAGA, MKL-1, MKL-2). Nature of the assay: qHTS cell viability, VP-MCC cell lines as a group (mean AUC, VP.MCC.avg). The assay is classed as cell-based, human.
Another assay has as its system HACAT cells. Nature of the assay: qHTS cell viability (CellTiter-Glo, 72 h; primary screen), control cell line. The format is cell-based, human.
In a further assay the test system is NIH-3T3 cells. Described as above. The assay is classed as cell-based, mouse.
The next assay deals with UISO cells (VN-MCC). Nature of the assay: qHTS cell viability (CellTiter-Glo, 72 h; primary and follow-up small molecule screen). The assay is classed as cell-based, human.
Assay [5] relates to six MCC cell lines and four control cell lines. Nature of the assay: qHTS cell viability, all 10 cell lines screened. The assay is classed as cell-based.
[6] abbreviates: NPC library, qHTS dose-response AUC, MKL2.
Setting [7] is: NPC library, mean AUC of six MCC cell lines.
The mark [8] stands for this setting: NPC library, qHTS dose-response AUC, WAGA.
The mark [9] stands for this setting: NPC library, qHTS dose-response AUC, MCC13.
Where [10] appears, read: NPC library, qHTS dose-response AUC, MCC26.
Setting [11] is: NPC library, mean AUC of control cell lines.
The mark [12] stands for this setting: NPC library, mean AUC of VN-MCC cell lines.
Where [13] appears, read: NPC library, therapeutic window: Control avg AUC minus VN-MCC avg AUC.
The mark [14] stands for this setting: NPC library, qHTS dose-response AUC, HEK293T control.
Setting [15] is: NPC library, qHTS dose-response AUC, CRL7250 control.
Setting [16] is: NPC library, qHTS dose-response AUC, MKL1.
[17] abbreviates: NPC library, mean AUC of VP-MCC cell lines.
Where [18] appears, read: NPC library, therapeutic window: Control avg AUC minus VP-MCC avg AUC.
Setting [19] is: NPC library, qHTS dose-response AUC, HACAT control.
The mark [20] stands for this setting: NPC library, qHTS dose-response AUC, NIH3T3 control.
Where [21] appears, read: NPC library, qHTS dose-response AUC, UISO.
Where [22] appears, read: NPC library, therapeutic window: Control avg AUC minus MCC avg AUC.

`CNCc1ccccc1.Cl` [N-Methylbenzylamine hydrochloride]: the MKL2_AUC in the assay with MKL-2 cells (VP-MCC) (setting [6]) is listed as 343.012. In [1] (setting [7]), this molecule registered an MCC_Avg_AUC of 429.112. The molecule also gave a WAGA_AUC in the assay on WAGA cells (VP-MCC) (setting [8]) of 372.649. This molecule also had an MCC13_AUC with MCC13 cells (VN-MCC) (setting [9]) of 438.819. The molecule also returned an MCC26_AUC in the assay on MCC26 cells (VN-MCC) (setting [10]) of 480.435. The Control_Avg_AUC in assay [2] (setting [11]) was determined as 471.352. In [3] (setting [12]), this molecule yielded a VN-MCC_Avg_AUC of 489.399. In addition, in assay [3] (setting [13]), the Control-VN-MCC is reported as -18.0472. In the assay on HEK293T cells (setting [14]), the HEK293T_AUC was found to be 408.972. In the assay with CRL-7250 cells (setting [15]), this molecule showed a CRL7250_AUC of 502.537. Moreover, the MKL1_AUC in the assay on MKL-1 cells (VP-MCC) (setting [16]) was found to be 390.814. In assay [4] (setting [17]), this molecule registered a VP-MCC_Avg_AUC of 368.825. The same molecule gave a Control-VP-MCC in assay [4] (setting [18]) of 102.527. The HACAT_AUC in the assay on HACAT cells (setting [19]) was found to be 476.463. Also, the NIH3T3_AUC in the assay on NIH-3T3 cells (setting [20]) is reported as 497.435. The UISO_AUC in the assay on UISO cells (VN-MCC) (setting [21]) is on record as 548.944. The molecule also yielded a Control-MCC in [5] (setting [22]) of 42.2399.

In the assay on MKL-2 cells (VP-MCC), `Cl.Oc1ccc2c3c1O[C@H]1[C@@H](O)C=C[C@H]4[C@@H](C2)NCC[C@@]341` [N-Normorphine hydrochloride] returned an MKL2_AUC of 420.551. Further, the MCC_Avg_AUC in assay [1] is recorded as 427.82. This molecule also displayed a WAGA_AUC in the assay with WAGA cells (VP-MCC) of 412.634. Besides, in the assay with MCC13 cells (VN-MCC), the MCC13_AUC was determined as 466.371. This molecule also had an MCC26_AUC in the assay on MCC26 cells (VN-MCC) of 408.273. Besides, in [2], the Control_Avg_AUC was 483.566. Also, in [3], the Control-VN-MCC is 45.2651 and the VN-MCC_Avg_AUC was 438.301. In the assay on HEK293T cells, this molecule yielded an HEK293T_AUC of 480.826. Also, the CRL7250_AUC with CRL-7250 cells was 485.195. This molecule also yielded an MKL1_AUC in the assay on MKL-1 cells (VP-MCC) of 418.832. In addition, in assay [4], the Control-VP-MCC stood at 66.2273 and the VP-MCC_Avg_AUC was 417.339. Also, the HACAT_AUC in the assay with HACAT cells is reported as 477.868. The NIH3T3_AUC in the assay on NIH-3T3 cells is reported as 490.376. In the assay with UISO cells (VN-MCC), the UISO_AUC is 440.259. In assay [5], the Control-MCC is 55.7462.

In the assay on MKL-2 cells (VP-MCC) (setting [6]), `CNS(=O)(=O)CCc1ccc2[nH]cc(C3CCN(C)CC3)c2c1` [Naratriptan hydrochloride] returned an MKL2_AUC of 428.785. The MCC_Avg_AUC in [1] (setting [7]) came to 418.966. The WAGA_AUC with WAGA cells (VP-MCC) (setting [8]) turned out to be 412.133. Also, in the assay on MCC13 cells (VN-MCC) (setting [9]), the MCC13_AUC is listed as 448.681. The MCC26_AUC in the assay with MCC26 cells (VN-MCC) (setting [10]) is reported as 402.936. Also, the Control_Avg_AUC in assay [2] (setting [11]) worked out at 462.669. In assay [3] (setting [12]), this molecule yielded a VN-MCC_Avg_AUC of 429.254. Further, the Control-VN-MCC in assay [3] (setting [13]) is 33.4153. In the assay with HEK293T cells (setting [14]), this molecule gave an HEK293T_AUC of 455.258. This molecule had a CRL7250_AUC in the assay on CRL-7250 cells (setting [15]) of 454.782. The same molecule gave an MKL1_AUC in the assay on MKL-1 cells (VP-MCC) (setting [16]) of 385.118. This molecule also registered a VP-MCC_Avg_AUC in assay [4] (setting [17]) of 408.679. In [4] (setting [18]), the Control-VP-MCC is 53.9902. This molecule yielded an HACAT_AUC in the assay with HACAT cells (setting [19]) of 491.601. Moreover, the NIH3T3_AUC in the assay with NIH-3T3 cells (setting [20]) is 449.036. The molecule also showed a UISO_AUC in the assay with UISO cells (VN-MCC) (setting [21]) of 436.144. Further, the Control-MCC in assay [5] (setting [22]) is 43.7027.

Take `Cc1ccc([N+](=O)[O-])[c]2c1[O][Hg]2` [Nitromersol]: the MKL2_AUC in the assay with MKL-2 cells (VP-MCC) amounted to 228.637. In [1], this molecule registered an MCC_Avg_AUC of 290.488. Moreover, the WAGA_AUC with WAGA cells (VP-MCC) is 281.054. For the same molecule, the MCC13_AUC in the assay on MCC13 cells (VN-MCC) is 325.021. Also, the MCC26_AUC in the assay on MCC26 cells (VN-MCC) is 361.414. Moreover, the Control_Avg_AUC in assay [2] came out at 345.629. In [3], this molecule showed a Control-VN-MCC of 18.7838 and a VN-MCC_Avg_AUC of 326.845. Also, the HEK293T_AUC in the assay on HEK293T cells is recorded as 310.441. In the assay with CRL-7250 cells, this molecule had a CRL7250_AUC of 286.086. The molecule further came in with an MKL1_AUC in the assay with MKL-1 cells (VP-MCC) of 252.702. In assay [4], this molecule registered a Control-VP-MCC of 91.4976 and a VP-MCC_Avg_AUC of 254.131. This molecule also returned an HACAT_AUC in the assay on HACAT cells of 397.686. In the assay with NIH-3T3 cells, this molecule gave an NIH3T3_AUC of 388.302. This molecule came in with a UISO_AUC in the assay with UISO cells (VN-MCC) of 294.101. Moreover, in assay [5], the Control-MCC stood at 55.1407.
